Assay results as given in patent US7968526B2, “Antisense oligonucleotides directed to ribonucleotide reductase R2 and uses thereof in the treatment of cancer” (Lorus Therapeutics Inc., priority 2003, dated 2011).

Experiment: Tissue distribution in the rat (CE method)
Assay type: in vivo
Method: The toxicokinetics and tissue distribution of SEQ ID NO:1 (and related oligonucleotide metabolites obtained from exonuclease-mediated chain shortening) were determined in rats and monkeys. In addition to investigating the pharmacokinetics and tissue distribution of SEQ ID NO:1, the purpose of the studies was to correlate adverse effects in the animal studies to the concentrations of SEQ ID NO:1 (and metabolites) in tissue and blood. A capillary electrophoresis (CE) method was used to measure the concentrations of SEQ ID NO:1 (and metabolites) in plasma and tissues.
The concentrations of SEQ ID NO:1 (and related n+1, n−1 to n−15 oligonucleotide metabolites) in the following rat and monkey tissues were measured by a validated CE method (Southwest Bio-Labs, Inc.): kidney, liver, spleen, heart, lung, bone marrow (rat), lymph nodes (monkey) and brain tissues. The tissue samples were collected from the designated animals as described in the 21-day toxicity studies: rats, administered bolus intravenous injections of SEQ ID NO:1 every other day at 2, 10, or 50 mg/kg; and monkeys administered SEQ ID NO:1 by continuous intravenous infusion at 2, 10, or 50 mg/kg/day.

[1] = 10 mg/kg bolus i.v. every other day, 4 hrs post last dose
[2] = 10 mg/kg bolus i.v. every other day, 48 hrs post first dose
[3] = 50 mg/kg bolus i.v. every other day, 4 hrs post first dose
[4] = 50 mg/kg bolus i.v. every other day, 4 hrs post last dose
[5] = 50 mg/kg bolus i.v. every other day, 48 hrs post first dose

5′-GGCTAAATCGCTCCACCAAG-3′ (all phosphorothioate, sugars by position and methylation of C not given here) [SEQ ID NO: 1, fully phosphorothioated antisense oligonucleotide that hybridizes to the coding region of R2 mRNA]
Mean Concentration total metabolites (n + 1 through n − 13), Bone Marrow [1]: 6.6 µg/g
Mean Concentration total metabolites (n + 1 through n − 13), Brain [1]: BDL (below detectable limits (1 μg/g rat; 0.2 μg/g monkey))
Mean Concentration total metabolites (n + 1 through n − 13), Heart [1]: 9.4 µg/g
Mean Concentration total metabolites (n + 1 through n − 13), Kidney [1]: 613.5 µg/g
Mean Concentration total metabolites (n + 1 through n − 13), Liver [1]: 105.9 µg/g
Mean Concentration total metabolites (n + 1 through n − 13), Lung [1]: 3.3 µg/g
Mean Concentration total metabolites (n + 1 through n − 13), Spleen [1]: 13.5 µg/g
Mean Concentration SEQ ID NO: 1, Bone Marrow [2]: BDL (below detectable limits (1 μg/g rat; 0.2 μg/g monkey))
Mean Concentration SEQ ID NO: 1, Brain [2]: BDL (below detectable limits (1 μg/g rat; 0.2 μg/g monkey))
Mean Concentration SEQ ID NO: 1, Heart [2]: BDL (below detectable limits (1 μg/g rat; 0.2 μg/g monkey))
Mean Concentration SEQ ID NO: 1, Kidney [2]: 13.3 µg/g
Mean Concentration SEQ ID NO: 1, Liver [2]: 4.7 µg/g
Mean Concentration SEQ ID NO: 1, Lung [2]: BDL (below detectable limits (1 μg/g rat; 0.2 μg/g monkey))
Mean Concentration SEQ ID NO: 1, Spleen [2]: BDL (below detectable limits (1 μg/g rat; 0.2 μg/g monkey))
Mean Concentration total metabolites (n + 1 through n − 13), Bone Marrow [2]: BDL (below detectable limits (1 μg/g rat; 0.2 μg/g monkey))
Mean Concentration total metabolites (n + 1 through n − 13), Brain [2]: BDL (below detectable limits (1 μg/g rat; 0.2 μg/g monkey))
Mean Concentration total metabolites (n + 1 through n − 13), Heart [2]: BDL (below detectable limits (1 μg/g rat; 0.2 μg/g monkey))
Mean Concentration total metabolites (n + 1 through n − 13), Kidney [2]: 68.4 µg/g
Mean Concentration total metabolites (n + 1 through n − 13), Liver [2]: 8.3 µg/g
Mean Concentration total metabolites (n + 1 through n − 13), Lung [2]: BDL (below detectable limits (1 μg/g rat; 0.2 μg/g monkey))
Mean Concentration total metabolites (n + 1 through n − 13), Spleen [2]: BDL (below detectable limits (1 μg/g rat; 0.2 μg/g monkey))
Mean Concentration SEQ ID NO: 1, Bone Marrow [3]: 13.2 µg/g
Mean Concentration SEQ ID NO: 1, Brain [3]: BDL (below detectable limits (1 μg/g rat; 0.2 μg/g monkey))
Mean Concentration SEQ ID NO: 1, Heart [3]: 14.5 µg/g
Mean Concentration SEQ ID NO: 1, Kidney [3]: 86.1 µg/g
Mean Concentration SEQ ID NO: 1, Liver [3]: 51.9 µg/g
Mean Concentration SEQ ID NO: 1, Lung [3]: 13.3 µg/g
Mean Concentration SEQ ID NO: 1, Spleen [3]: 32.7 µg/g
Mean Concentration total metabolites (n + 1 through n − 13), Bone Marrow [3]: 19.5 µg/g
Mean Concentration total metabolites (n + 1 through n − 13), Brain [3]: BDL (below detectable limits (1 μg/g rat; 0.2 μg/g monkey))
Mean Concentration total metabolites (n + 1 through n − 13), Heart [3]: 13.0 µg/g
Mean Concentration total metabolites (n + 1 through n − 13), Kidney [3]: 187 µg/g
Mean Concentration total metabolites (n + 1 through n − 13), Liver [3]: 79.9 µg/g
Mean Concentration total metabolites (n + 1 through n − 13), Lung [3]: 21.8 µg/g
Mean Concentration total metabolites (n + 1 through n − 13), Spleen [3]: 19.9 µg/g
Mean Concentration SEQ ID NO: 1, Bone Marrow [4]: 29.9 µg/g
Mean Concentration SEQ ID NO: 1, Brain [4]: BDL (below detectable limits (1 μg/g rat; 0.2 μg/g monkey))
Mean Concentration SEQ ID NO: 1, Heart [4]: 20.8 µg/g
Mean Concentration SEQ ID NO: 1, Kidney [4]: 286.6 µg/g
Mean Concentration SEQ ID NO: 1, Liver [4]: 91.6 µg/g
Mean Concentration SEQ ID NO: 1, Lung [4]: 18.2 µg/g
Mean Concentration SEQ ID NO: 1, Spleen [4]: 18.4 µg/g
Mean Concentration total metabolites (n + 1 through n − 13), Bone Marrow [4]: 67.4 µg/g
Mean Concentration total metabolites (n + 1 through n − 13), Brain [4]: BDL (below detectable limits (1 μg/g rat; 0.2 μg/g monkey))
Mean Concentration total metabolites (n + 1 through n − 13), Heart [4]: 42.5 µg/g
Mean Concentration total metabolites (n + 1 through n − 13), Kidney [4]: 1373.6 µg/g
Mean Concentration total metabolites (n + 1 through n − 13), Liver [4]: 279.7 µg/g
Mean Concentration total metabolites (n + 1 through n − 13), Lung [4]: 30.0 µg/g
Mean Concentration total metabolites (n + 1 through n − 13), Spleen [4]: 60.8 µg/g
Mean Concentration SEQ ID NO: 1, Bone Marrow [5]: 2.8 µg/g
Mean Concentration SEQ ID NO: 1, Brain [5]: BDL (below detectable limits (1 μg/g rat; 0.2 μg/g monkey))
Mean Concentration SEQ ID NO: 1, Heart [5]: 2.5 µg/g
Mean Concentration SEQ ID NO: 1, Kidney [5]: 48.2 µg/g
Mean Concentration SEQ ID NO: 1, Liver [5]: 19.8 µg/g
Mean Concentration SEQ ID NO: 1, Lung [5]: 2.1 µg/g
Mean Concentration SEQ ID NO: 1, Spleen [5]: 1.4 µg/g
Mean Concentration total metabolites (n + 1 through n − 13), Bone Marrow [5]: 4.4 µg/g
Mean Concentration total metabolites (n + 1 through n − 13), Brain [5]: BDL (below detectable limits (1 μg/g rat; 0.2 μg/g monkey))
Mean Concentration total metabolites (n + 1 through n − 13), Heart [5]: 7.2 µg/g
Mean Concentration total metabolites (n + 1 through n − 13), Kidney [5]: 287.6 µg/g
Mean Concentration total metabolites (n + 1 through n − 13), Liver [5]: 68.7 µg/g
Mean Concentration total metabolites (n + 1 through n − 13), Lung [5]: 3.8 µg/g
Mean Concentration total metabolites (n + 1 through n − 13), Spleen [5]: 2.2 µg/g
Concentrations in the brain (lower limit for detection 1 μg/g): below the limits of detection
